Test results: PubChem BioAssay (NCI)
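Dose response: 5 concentrations. Exposure: 48 h. Format: 96-well plates. Endpoint: linear interpolation; highest concentration if not reached. The concentration for full growth arrest is given as TGI.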

Key:
Experiment in all cases: NCI anticancer screen, dose series, 48 h
IGROV1 ovarian = system: IGROV1 ovarian
MDA-MB-231 breast = system: MDA-MB-231 breast
RPMI-8226 leukemia = system: RPMI-8226 leukemia
MCF7 breast = system: MCF7 breast
SR leukemia = system: SR leukemia
BT-549 breast = system: BT-549 breast
786-0 renal = system: 786-0 renal
CCRF-CEM leukemia = system: CCRF-CEM leukemia
SN12C renal = system: SN12C renal
RXF 393 renal = system: RXF 393 renal
CAKI-1 renal = system: CAKI-1 renal
HOP-62 NSCLC = system: HOP-62 NSCLC
EKVX NSCLC = system: EKVX NSCLC
SF-268 CNS = system: SF-268 CNS
MALME-3M melanoma = system: MALME-3M melanoma
HCC-2998 colon = system: HCC-2998 colon
SNB-75 CNS = system: SNB-75 CNS
OVCAR-5 ovarian = system: OVCAR-5 ovarian
NCI-H522 lung = system: NCI-H522 lung

SMILES | TGI (IGROV1 ovarian) [µM] | TGI (MDA-MB-231 breast) [µM] | TGI (RPMI-8226 leukemia) [µM] | TGI (MCF7 breast) [µM] | TGI (SR leukemia) [µM] | TGI (BT-549 breast) [µM] | TGI (786-0 renal) [µM] | TGI (CCRF-CEM leukemia) [µM] | TGI (SN12C renal) [µM] | TGI (RXF 393 renal) [µM] | TGI (CAKI-1 renal) [µM] | TGI (HOP-62 NSCLC) [µM] | TGI (EKVX NSCLC) [µM] | TGI (SF-268 CNS) [µM] | TGI (MALME-3M melanoma) [µM] | TGI (HCC-2998 colon) [µM] | TGI (SNB-75 CNS) [µM] | TGI (OVCAR-5 ovarian) [µM] | TGI (NCI-H522 lung) [µM]
Cc1ccc(/C=N/NS(=O)(=O)c2ccc(/C=C3\NC(=O)NC3=O)cc2)cc1 | > 100 | > 100 | > 100 | > 100 | > 100 | > 100 | > 100 | > 100 | > 100 | > 100 | > 100 | 91.1 | > 100 | 57.7 | > 100 | > 100 | 47.7 | > 100 | 
CC(C)NC(=O)OCc1c(COC(=O)NC(C)C)c(-c2ccc[n+](COC(=O)C(C)(C)C)c2)n2c1CCC2 | > 100 | > 100 | > 100 | > 100 | > 100 | > 100 | > 100 | > 100 | > 100 | > 92.8 | 99.7 | > 100 | > 100 | > 100 | > 100 | > 100 | > 100 | > 100 | > 81.5
CC(C)N1[C@@H]2CCCC[C@H]2N(C(C)C)P1(=O)C(=O)/C=C/c1ccccc1 | 4.37 | 8.74 | 9.32 | 59.9 | 8.27 | 14.5 | 3.36 |  | 3.96 | 3.46 | 7.31 | 13.7 | 13.8 | 7.33 | 2.33 | 5.33 |  | 6.66 | 3.26
CCOP(=O)(OCC)C(F)(F)Cc1cnc(C)c2c1COC(C)(C)O2 | > 10 | > 10 | > 10 | > 10 | > 10 | > 10 | > 10 | > 10 | > 10 | > 10 | > 10 | > 10 | > 10 | > 10 | > 10 | > 10 | > 10 | > 10 | 
O=C(O)c1ccc(NNC(=O)c2cccc3c(=O)c4ccccc4[nH]c23)cc1 | > 100 | > 100 | > 100 | > 100 | > 100 | > 100 | > 100 | > 100 | > 100 | > 100 | > 100 | > 100 | > 100 | > 100 | > 100 | > 100 | > 100 | > 100 | 96
O=C1COCCN1C(=O)c1ccccc1Cl | > 100 | > 100 | > 100 | > 100 | > 100 | > 100 | > 100 | > 100 | > 100 | > 100 | > 100 | > 100 | > 100 | > 100 | > 100 | > 100 | > 100 | > 100 | > 100
O=c1cc(-c2cccc(OCc3ccccc3)c2)[nH]c2cc3c(cc12)OCO3 | > 100 | 9.03 | 0.766 | > 100 | > 100 | > 100 | 3.98 | 0.481 | > 22.1 | 8.15 | > 50.8 | 9.98 | > 100 | > 70.3 | > 100 | 0.751 |  | > 100 | 1.42
CCOC(=O)c1cc(C#N)[nH]c1-c1ccsc1 | > 100 | > 100 | 65.6 | > 100 | 35.5 | > 100 | > 100 | 69.3 | > 100 | 51.3 | > 100 | > 100 | 84 | 57.1 | 77.3 | > 100 | 97.4 | > 100 | 90.2
COc1cc2c(cc1OC)C(=O)/C(=C/c1ccc([N+](=O)[O-])cc1)CC2 | > 10 | > 10 | > 10 | > 10 | > 10 | > 10 | > 10 | > 10 | > 10 | > 10 | > 10 | > 10 | > 10 | > 10 | > 10 | > 10 |  | > 10 | 
c1cc(C[S+]2CCCC2)sc1C[S+]1CCCC1 | > 100 | > 100 | > 100 | > 100 | > 100 | > 100 | > 100 | > 100 | > 100 | > 100 | > 100 | > 100 | > 100 | > 100 | > 100 | > 100 | > 100 | > 100 | > 100
CN1CCc2cc(N)cc3c2C1Cc1ccc2c(c1-3)OCO2 (centres undefined) | 58.5 | > 100 | 46.9 | > 100 | > 39.6 | > 100 | 99 | 15.9 | > 88.6 | > 88.2 | > 100 | > 100 | > 100 | > 100 | 58.6 | 51.4 | > 91.5 | > 77.7 | 53.1
CCN(CC)CCCNc1ncc(C)c2c1c1ccc3c(O)cccc3c1n2C | 5.97 | 3.42 | > 23.9 | 2.06 | 1.78 | 4.05 | 2.19 | 6.1 | 14.3 | 9.41 | 3.4 | 2.58 | 6.87 | 36.6 | 34.7 | 4.31 | 6.74 | 11.8 | 2.29
O=C1OC(CS(=O)(=O)c2ccccc2)CC1O (centres undefined) | > 100 | > 100 | > 100 | > 100 | > 100 | > 100 | > 100 | > 100 | > 100 | > 100 | > 100 | > 100 | > 100 | > 100 | > 100 | > 100 |  | > 100 | > 100
